Source: patent US20150065421A1, “BASAL INSULIN THERAPY” (SANOFI, priority 2012, published 2015)

Columns and labels:
[1] = tested on: people with IGT, IFG, or early diabetes; experiment: Double-blind pilot study HOE901/1021 (safety and feasibility); type: in vivo, human
Text: The use of exogenous insulin in an IGT, IFG, or diabetic population might confer several potential metabolic and cardiovascular benefits: • 1. The fact that it is finely titratable and durable (compared to oral antidiabetic agents) may translate into a powerful effect to delay the exposure of target tissues to toxic levels of glycemia. • 2. Insulin-mediated suppression of circulating free fatty acids (FFA) will: • reduce VLDL synthesis and improve lipoprotein patterns (i.e. lower triglycerides, and increase HDL-C); • reduce lipotoxicity at the level of the beta cell and at insulin's target tissues; • reduce obligatory oxidative metabolism in ischemic myocardium. • 3. Exogenous insulin will prevent metabolic decompensation due to stress, that is either mild and frequent (i.e. daily stresses and minor illness or injury), or severe and less common (i.e. major injury, illness, surgery, vascular events). These stress events would normally suppress endogenous insulin responses even when a pharmacologic secretagogue or sensitizer is present; exogenous, injected insulin cannot be suppressed in such a way. • 4. Nitric oxide-mediated vasodilation and endothelial function are abnormal in those with IFG, IGT, or diabetes. Additionally, markers of endothelial inflammation are increased. These abnormalities are all improved by insulin treatment. […]

[2] = tested on: people at high risk for vascular disease with either IFG, IGT, or early type 2 diabetes; experiment: ORIGIN trial: microvascular outcomes; type: in vivo, human
Text: The composite microvascular outcome will be met by the development of any of the following: • Doubling of serum creatinine from study baseline (screening value) • Albuminuria progression, defined as a change from normoalbuminuria to either microalbuminuria or clinical proteinuria, or from microalbuminuria to clinical proteinuria using the definitions in the attached table.
• Requirement for renal replacement therapy (eg, dialysis, renal transplant), or death due to renal failure • Use of retinal photocoagulation or vitrectomy for diabetic retinopathy, including macular edema
There were 2 co-primary composite CV outcomes. The first was CV death, non-fatal MI or non-fatal stroke, and the second was a composite of any of these events or a revascularization procedure or hospitalization for heart failure. Secondary outcomes included a composite microvascular outcome comprising a doubling of serum creatinine from baseline, progression of albuminuria category from normoalbuminuria or microalbuminuria to microalbuminuria or overt nephropathy, renal replacement therapy, renal death, retinal photocoagulation or vitrectomy for retinopathy. They also included new type 2 diabetes developing by the time of the 1st post-trial oral glucose tolerance test in participants without baseline diabetes, and all-cause mortality. Other outcomes included incident cancers, CV hospitalizations, and angina. Cardiovascular and cancer outcomes were reviewed by adjudicators masked to treatment allocation. Episodes of hypoglycaemia since the prior visit were recorded at each visit. Symptomatic hypoglycemia was classified as confirmed if a concomitant recorded capillary glucose level was <3 mmol/L (54 mg/dL). Severe hypoglycemia was defined as hypoglycemia that required assistance plus either prompt recovery with glucose or glucagon or a documented capillary glucose ≦2.0 (36 mg/dL). New diabetes was diagnosed if 2 consecutive FPG levels within a 4-month period were ≧7 mM (126 mg/dL) during the trial; a diagnosis of diabetes was made by a physician and a pharmacologic antidiabetic agent was being taken and there was evidence of either a FPG ≧7 mM (126 mg/dL) or any glucose value ≧11.1 mM (200 mg/dL); either 1 or more capillary glucose levels were ≧11.1 mM (200 mg/dl) and a lab-measured FPG was ≧7 mmol/l (126 mg/dl) or a lab measured random glucose level was ≧11.1 mM (200 mg/dl) during down-titration of glargine insulin; or any FPG was ≧7 mM (126 mg/dl) or 2 hour plasma glucose was ≧11.1 mM (200 mg/dl) during the first oral glucose tolerance test.
The microvascular outcome was a composite of: laser surgery or vitrectomy or blindness for diabetic retinopathy; development of renal death or the need for renal replacement treatment (dialysis or transplantation); doubling of serum creatinine; or progression from lesser to greater severity of microalbuminuria. The last 2 components are laboratory-based—the others are “clinical” microvascular outcomes.

[3] = cited from earlier work
[4] = tested on: people at high risk for vascular disease with either IFG, IGT, or early type 2 diabetes; experiment: ORIGIN trial: cognition outcomes (Mini-Mental Status Exam); type: in vivo, human
Text: Defined by serial cognitive testing (e.g., mini-mental status examination [MMSE]).
Overall, there was a strong trend (p=0.075) for glargine treatment to be associated with fewer impaired patients. The data, as summarized in Table 7, reflect the Mini-Mental Status Exam (MMSE) data for the number of participants scoring 24 or less at various timepoints (mild impairment). These patients were examined because they represent those at greater risk of further deterioration during the study, and still with enough patients to confer adequate power to make statistical comparisons. There was a significant reduction of cases of mild impairment from baseline at about 4 years.

[5] = patients with a history of atrial fibrillation at baseline

(Gly A21) Arg (B31) Arg (B32) human insulin [insulin glargine]
severity of hypoglycemia episodes ([1]; all episodes): mild
subjects who experienced hypoglycemia ([1]; of 13 insulin glargine subjects, two weeks, calorie-restricted diet, titrated to FPG 80-95 mg/dL): Two
Albumin Prog, N (%) ([2]; glargine group): 1154
Albumin Prog, Rate ([2]; glargine group): 3.3
Clin Microvasc, N (%) ([2]; glargine group): 190
Clin Microvasc, Rate ([2]; glargine group): 0.5
Double Cr, N (%) ([2]; glargine group): 94
Double Cr, Rate ([2]; glargine group): 0.25
Laser/Vitrect, N (%) ([2]; glargine group): 79
Laser/Vitrect, Rate ([2]; glargine group): 0.22
Microvascular, N (%) ([2]; glargine group): 1280
Microvascular, Rate ([2]; glargine group): 3.7
Renal Failure, N (%) ([2]; glargine group): 36
Renal Failure, Rate ([2]; glargine group): 0.1
Laser/Vitrect, HR (95% CI) ([2]; glargine vs standard, P 0.016): 0.59 (0.38, 0.91)
Clin Microvasc, HR (95% CI) ([2]; glargine vs standard, P 0.038): 0.74 (0.56, 0.98)
Microvascular, HR (95% CI) ([2]; glargine vs standard, P 0.066): 0.90 (0.81, 1.01)
Double Cr, HR (95% CI) ([2]; glargine vs standard, P 0.09): 0.70 (0.46, 1.06)
Albumin Prog, HR (95% CI) ([2]; glargine vs standard, P 0.17): 0.92 (0.82, 1.04)
Renal Failure, HR (95% CI) ([2]; glargine vs standard, P 0.46): 1.27 (0.67, 2.39)
microvascular outcomes, difference to standard care ([2]; insulin glargine vs standard care): no statistically significant difference
RR for Clinical Microvascular outcomes (non-laboratory-based) [2, 5]: 0.42 (0.19-0.91)
RR for microvascular outcome [2, 5]: 0.74 (0.55-0.98)
relative risk (RR) for microvascular outcome ([2]; patients with baseline A1c<6.4%, not significant): 1.08
relative risk (RR) for microvascular outcome ([2]; patients with baseline A1c≧6.4%, statistically significant): 0.88 (0.79-0.98)
mean duration of action ([3]; in vivo): approximately 20 hours
duration of glucose lowering effect ([3]; smooth, without a definite peak): 24 h
participants scoring 24 or less in MMSE (mild impairment), N (%) ([4]; 2 years, P 0.823 vs standard, baseline 483 (7.7)): 433 (7.6) N (%)
participants scoring 24 or less in MMSE (mild impairment), N (%) ([4]; Any measure, P 0.075 vs standard): 605 (10.4) N (%)
participants scoring 24 or less in MMSE (mild impairment), N (%) ([4]; End of study, P 0.358 vs standard): 464 (9.6) N (%)
participants scoring 24 or less in MMSE (mild impairment), N (%) ([4]; ~4 years, P 0.022 vs standard): 449 (9.0) N (%)
